These results are taken from US9725445B2, “Cycloalkyl nitrile pyrazolo pyridones as Janus kinase inhibitors” (Merck Sharp & Dohme Corp., priority 2013, dated 2017).

Chain of JAK1 (P23458 875-1153): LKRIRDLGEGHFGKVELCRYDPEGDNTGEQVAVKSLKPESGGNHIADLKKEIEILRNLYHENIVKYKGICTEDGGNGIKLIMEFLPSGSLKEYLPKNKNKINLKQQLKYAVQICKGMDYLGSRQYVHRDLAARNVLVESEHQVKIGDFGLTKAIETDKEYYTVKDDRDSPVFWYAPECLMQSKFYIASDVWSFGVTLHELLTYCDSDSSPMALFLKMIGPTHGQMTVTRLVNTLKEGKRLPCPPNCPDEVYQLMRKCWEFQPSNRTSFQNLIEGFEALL

This experiment concerns the target JAK1 (Homo sapiens (Human), UniProt P23458). Description: Jak biochemical HTRF assay, JAK1. The following applies: HTRF biochemical assay, recombinant GST-tagged catalytic domain; read-out: JAK1 IC50. How it is done: Jak Biochemical HTRF Assay Protocol
The ability of compounds to inhibit the activity of JAK1, JAK2, JAK3, and Tyk2 was measured using a recombinant purified GST-tagged catalytic domain for each enzyme (Invitrogen JAK1 #M4290, JAK2 #M4290, JAK3 #M4290, Tyk2 #M4290) in an HTRF format biochemical assay. […] The basic assay protocol is as follows: First, 250 nL of diluted compounds in DMSO were dispensed into the wells of a dry 384-well Black plate (Greiner #781076) using a Labcyte Echo 555 acoustic dispenser. Subsequent reagent additions employed an Agilent Bravo. […] After equilibration, 2 μL of 10×ATP in 1× assay buffer was added to initiate the kinase reaction and the plates were shaken and then incubated at room temperature for 120 minutes. […] Plates were shaken and centrifuged and then incubated 60 minutes at room temperature and then read on a Perkin Elmer Envision (λex=337 nm, λem=665 and 615 nm, TRF delay time=20 μs). HTRF signal=10,000*665 nm reading/615 nm reading. After normalization to untreated controls, the percent inhibition of the HTRF signal at each compound concentration was calculated. The plot of percent inhibition versus the log of compound concentration was fit with a 4-parameter dose response equation to calculate IC50 values.
Final Reaction Conditions were:
Examples of the instant invention were evaluated in JAK1 and JAK2 in vitro binding assays.
For orientation: TR-FRET usually uses a lanthanide donor and a delayed reading to cut background.
By IC50 is commonly meant the concentration at which inhibition is half-maximal. For `N#C[C@@H]1CCCC[C@H]1n1nc(Nc2cccc(CNC(=O)c3cnco3)c2)c2c(=O)[nH]ccc21` [Example 3-13, N-[3-({1-[(1R,2R)-2-cyanocyclohexyl]-4-oxo-4,5-dihydro-1H-pyrazolo[4,3-c]pyridin-3-yl}amino)benzyl]-1,3-oxazole-5-carboxamide], the half-maximal inhibitory concentration (IC50) came out at 14000 pM.
As for `CC(c1ccc(Nc2nn([C@H]3CCCC[C@@H]3C#N)c3cc[nH]c(=O)c23)cc1)n1ccnn1` (single isomer, unassigned) [Example 15-41, (1S,2S)-2-[4-oxo-3-({4-[(1R or 1S)-1-(1H-1,2,3-triazol-1-yl)ethyl]phenyl}amino)-4,5-dihydro-1H-pyrazolo[4,3-c]pyridin-1-yl]cyclohexanecarbonitrile], the half-inhibitory concentration (IC50) stood at 210 pM.
On to `CC1NCc2cc(Nc3nn([C@H]4CCCC[C@@H]4C#N)c4cc[nH]c(=O)c34)ccc21` (mixture of isomers) [Example 12-3, (1S,2S)-2-(3-{[(1S and 1R)-1-methyl-2,3-dihydro-1H-isoindol-5-yl]amino}-4-oxo-4,5-dihydro-1H-pyrazolo[4,3-c]pyridin-1-yl)cyclohexanecarbonitrile], for which the IC50 stood at 810 pM.
Turning to `CC(C)C(c1ccc(Nc2nn([C@H]3CCCC[C@@H]3C#N)c3cc[nH]c(=O)c23)cc1)n1nccn1` (single isomer, unassigned) [Example 15-30, (1S,2S)-2-[3-({4-[(1S or 1R)-2-methyl-1-(2H-1,2,3-triazol-2-yl)propyl]phenyl}amino)-4-oxo-4,5-dihydro-1H-pyrazolo[4,3-c]pyridin-1-yl]cyclohexanecarbonitrile], the IC50 is 360 pM.
As to `CN(C)C(c1ccc(Nc2nn([C@H]3CCCC[C@@H]3C#N)c3cc[nH]c(=O)c23)cc1)C(F)(F)F` (single isomer, unassigned) [Example 9-4, (1S,2S)-2-(3-(4-((R or S)-1-(Dimethylamino)-2,2,2-trifluoroethyl)phenylamino)-4-oxo-4,5-dihydropyrazolo[4,3-c]pyridin-1-yl)cyclohexanecarbonitrile], the 50% inhibitory concentration (IC50) is 110 pM.
Under `CC1(C)C(O)c2cc(Nc3nn([C@H]4CCCC[C@@H]4C#N)c4cc[nH]c(=O)c34)ccc2S1(=O)=O` (single isomer, unassigned) [Example 3-172, (1S,2S)-2-(3-{[(3S or 3R)-3-hydroxy-2,2-dimethyl-1,1-dioxido-2,3-dihydro-1-benzothiophen-5-yl]amino}-4-oxo-4,5-dihydro-1H-pyrazolo[4,3-c]pyridin-1-yl)cyclohexanecarbonitrile] stands 390 pM; under `CC(C)(C)[S@+]([O-])N[C@H](c1ccc(Nc2nn([C@H]3CCCC[C@@H]3C#N)c3cc[nH]c(=O)c23)cc1)C(F)(F)F` [Example 3-56, N-{(1R)-1-[4-({1-[(1S,2S)-2-cyanocyclohexyl]-4-oxo-4,5-dihydro-1H-pyrazolo[4,3-c]pyridin-3-yl}amino)phenyl]-2,2,2-trifluoroethyl}-2-methylpropane-2-sulfinamide], 310 pM.
With `COCC(C)(C)CN1Cc2cc(Nc3nn([C@@H]4CCCCC[C@H]4C#N)c4cc[nH]c(=O)c34)ccc2S1(=O)=O` (single isomer, unassigned) [Example 15-46, (1R,2R or 1S,2S)-2-(3-{[2-(3-methoxy-2,2-dimethylpropyl)-1,1-dioxido-2,3-dihydro-1,2-benzisothiazol-5-yl]amino}-4-oxo-4,5-dihydro-1H-pyrazolo[4,3-c]pyridin-1-yl)cycloheptanecarbonitrile], the IC50 stood at 76 pM.
On to `CC1NCc2cc(Nc3nn([C@H]4CCCC[C@@H]4C#N)c4cc[nH]c(=O)c34)ccc21` (single isomer, unassigned) [Example 12-4, (1S,2S)-2-(3-{[(1S or 1R)-1-methyl-2,3-dihydro-1H-isoindol-5-yl]amino}-4-oxo-4,5-dihydro-1H-pyrazolo[4,3-c]pyridin-1-yl)cyclohexanecarbonitrile], for which the IC50 is 580 pM.
In the case of `N#C[C@H]1CCCC[C@@H]1n1nc(Nc2ccc(C3(C(F)(F)F)CCCN3)cc2)c2c(=O)[nH]ccc21` (single isomer, unassigned) [Example 15-61, (1S,2S)-2-[4-oxo-3-({4-[(2R or 2S)-2-(trifluoromethyl)pyrrolidin-2-yl]phenyl}amino)-4,5-dihydro-1H-pyrazolo[4,3-c]pyridin-1-yl]cyclohexanecarbonitrile], the IC50 amounted to 140 pM.
On to `N#C[C@H]1CCCC[C@@H]1n1nc(Nc2ccc3c(c2)CC2(CC2)C3(O)C(F)(F)F)c2c(=O)[nH]ccc21` (single isomer, unassigned) [Example 3-124, (1S,2S)-2-(3-(((R or S)-1′-hydroxy-1′-(trifluoromethyl)-1′,3′-dihydrospiro[cyclopropane-1,2′-inden]-5′-yl)amino)-4-oxo-4,5-dihydro-1H-pyrazolo[4,3-c]pyridin-1-yl)cyclohexanecarbonitrile], for which the IC50 was 230 pM.
`CC(c1ccc(Nc2nn([C@H]3CCCC[C@@H]3C#N)c3cc[nH]c(=O)c23)cc1)n1ccnn1` (single isomer, unassigned) [Example 15-42, (1S,2S)-2-[4-oxo-3-({4-[(1S or 1R)-1-(1H-1,2,3-triazol-1-yl)ethyl]phenyl}amino)-4,5-dihydro-1H-pyrazolo[4,3-c]pyridin-1-yl]cyclohexanecarbonitrile]: the IC50 came to 150 pM.
In the case of `CC1NCc2cc(Nc3nn([C@H]4CCCC[C@@H]4C#N)c4cc[nH]c(=O)c34)ccc21` (single isomer, unassigned) [Example 12-5, (1S,2S)-2-(3-{[(1R or 1S)-1-methyl-2,3-dihydro-1H-isoindol-5-yl]amino}-4-oxo-4,5-dihydro-1H-pyrazolo[4,3-c]pyridin-1-yl)cyclohexanecarbonitrile], the IC50 came out at 610 pM.
As to `N#C[C@H]1CCCC[C@@H]1n1nc(Nc2ccc([C@]3(O)CC[C@@H](C(=O)O)CC3)cc2)c2c(=O)[nH]ccc21` (racemic) [Example 17-1, (1R,4S and 1S,4R)-4-(4-(1-((1S,2S)-2-Cyanocyclohexyl)-4-oxo-4,5-dihydro-1H-pyrazolo[4,3-c]pyridin-3-ylamino)phenyl)-4-hydroxycyclohexanecarboxylic acid], the concentration for half-maximal inhibition (IC50) is 95 pM.
In the case of `CC(C)(C)N1Cc2cc(Nc3nn([C@H]4CCCCC[C@@H]4C#N)c4cc[nH]c(=O)c34)ccc2S1(=O)=O` (single isomer, unassigned) [Example 3-176, (1S,2S or 1R,2R)-2-{3-[(2-tert-butyl-1,1-dioxido-2,3-dihydro-1,2-benzisothiazol-5-yl)amino]-4-oxo-4,5-dihydro-1H-pyrazolo[4,3-c]pyridin-1-yl}cycloheptanecarbonitrile], the IC50 stood at 1900 pM.
Under `C[C@H](N[C@@H]1CC[C@@H](n2nc(Nc3ccc(C(F)(F)F)cc3)c3c(=O)[nH]ccc32)[C@H](C#N)C1)C1CC1` [Example 5-14, (1R,2R,5R)-5-(((S)-1-cyclopropylethyl)amino)-2-(4-oxo-3-((4-(trifluoromethyl)phenyl)amino)-4,5-dihydro-1H-pyrazolo[4,3-c]pyridin-1-yl)cyclohexanecarbonitrile] stands 9400 pM; under `C[C@H](N[C@H]1CC[C@H](n2nc(Nc3ccc(C(F)(F)F)cc3)c3c(=O)[nH]ccc32)[C@@H](C#N)C1)C1CC1` [Example 5-12, (1S,2S,5S)-5-(((S)-1-cyclopropylethyl)amino)-2-(4-oxo-3-((4-(trifluoromethyl)phenyl)amino)-4,5-dihydro-1H-pyrazolo[4,3-c]pyridin-1-yl)cyclohexanecarbonitrile], 1200 pM; under `N#C[C@H]1CCCC[C@@H]1n1nc(Nc2ccc(-c3ccon3)cc2)c2c(=O)[nH]ccc21` [Example 15-4, (1S,2S)-2-{3-[(4-isoxazol-3-ylphenyl)amino]-4-oxo-4,5-dihydro-1H-pyrazolo[4,3-c]pyridin-1-yl}cyclohexanecarbonitrile], 180 pM.
On to `CC(C)(C)[S@@+]([O-])N[C@@H](c1ccc(Nc2nn([C@H]3CCCC[C@@H]3C#N)c3cc[nH]c(=O)c23)cc1)C(F)(F)F` (stereo in doubt) [Example 3-55], for which the IC50 was 520 pM.
Consider `N#C[C@H]1CCCC[C@@H]1n1nc(Nc2ccc3c(c2)CN(CC2CC2)C3)c2c(=O)[nH]ccc21` [Example 3-77, (1S,2S)-2-(3-{[2-(cyclopropylmethyl)-2,3-dihydro-1H-isoindol-5-yl]amino}-4-oxo-4,5-dihydro-1H-pyrazolo[4,3-c]pyridin-1-yl)cyclohexanecarbonitrile], for which the IC50 turned out to be 520 pM.
With `CC(C)(C)N1Cc2cc(Nc3nn([C@H]4CCCCC[C@H]4C#N)c4cc[nH]c(=O)c34)ccc2S1(=O)=O` (single isomer, unassigned) [Example 3-178, (1R,2S or 1S,2R)-2-{3-[(2-tert-butyl-1,1-dioxido-2,3-dihydro-1,2-benzisothiazol-5-yl)amino]-4-oxo-4,5-dihydro-1H-pyrazolo[4,3-c]pyridin-1-yl}cycloheptanecarbonitrile], the half-inhibitory concentration (IC50) was determined as 840 pM.
Turning to `CS(=O)(=O)c1ccc(Nc2nn([C@H]3CCC[C@@H]3C#N)c3cc[nH]c(=O)c23)cc1` [Example 3-94, (1S,2S)-2-(3-{[4-(methylsulfonyl)phenyl]amino}-4-oxo-4,5-dihydro-1H-pyrazolo[4,3-c]pyridin-1-yl)cyclopentanecarbonitrile], the IC50 came out at 120 pM.
